Experimental data as given in publication PMC2075610 (Biochimica et Biophysica Acta. Molecular Basis of Disease, 2006).
Non-standard residues stand in square brackets, D forms with d. Residues, ends and D or L forms follow the SMILES beside them. *: point of attachment. Nle = CCCC[C@H](N)C(=O)O; For = O=C*

Assays:
R190/K192 FPR [1] = target: T1, R190/K192 FPR (Homo sapiens, UniProt P21462, N192K); test: biochemical; type: biochemical
W190/N192 FPR [2] = target: T2, W190/N192 FPR (Homo sapiens, UniProt P21462, R190W); type: cell-based
W190/N192 FPR [3] = target: T2, W190/N192 FPR; test: biochemical; type: biochemical
R190/K192 FPR [4] = target: T1, R190/K192 FPR; type: cell-based
R190/N192 FPR [5] = target: T3, R190/N192 FPR (Homo sapiens, UniProt P21462); type: cell-based
R190/K192 FPR [6] = target: T1, R190/K192 FPR; test: biochemical; type: binding
R190/N192 FPR [7] = target: T3, R190/N192 FPR; test: biochemical; type: binding
W190/N192 FPR [8] = target: T2, W190/N192 FPR; test: biochemical; type: binding
R190/K192 FPR [9] = target: T1, R190/K192 FPR; type: cell-based; remark: listed apart in the source
R190/N192 FPR [10] = target: T3, R190/N192 FPR; type: cell-based; remark: listed apart in the source
W190/N192 FPR [11] = target: T2, W190/N192 FPR; type: cell-based; remark: listed apart in the source
R190/N192 FPR [12] = target: T3, R190/N192 FPR; test: biochemical; type: biochemical
FIV = conditions: cited from earlier work
FPR = conditions: cited from earlier work
MMWLL = test: flow
[13] = target: Coronavirus 229E spike N-terminal 7mer (Human coronavirus 229E); test: flow
[14] = target: Coronavirus OC43 spike 36mer (Human coronavirus OC43); test: flow
[15] = target: SARS coronavirus spike 12mer (SARS coronavirus); test: flow
[16] = target: HIV-1 gp41 12mer (Human immunodeficiency virus 1); test: flow
[17] = target: ETYIK-(Alexa Fluor)WPWWVWL (Human coronavirus 229E); test: flow
[18] = target: Coronavirus 229E spike 36mer (Human coronavirus 229E); test: flow
[19] = target: HIV-2 envelope 37mer (Human immunodeficiency virus 2); test: flow
[20] = target: Coronavirus 229E spike 12mer (Human coronavirus 229E); test: flow
[21] = target: HKU-1 coronavirus spike peptide (Human coronavirus HKU1); test: flow
reverse 229E peptide = test: flow
[22] = target: Coronavirus 229E spike 5mer (Human coronavirus 229E); test: flow
[23] = target: Coronavirus 229E spike 7mer (Human coronavirus 229E); test: flow

CC[C@H](C)[C@H](NC(=O)[C@H](Cc1ccc(O)cc1)NC(=O)[C@@H](NC(=O)[C@@H](N)CCC(=O)O)[C@@H](C)O)C(=O)N[C@@H](CCCCN)C(=O)N[C@@H](Cc1c[nH]c2ccccc12)C(=O)N1CCC[C@H]1C(=O)N[C@@H](Cc1c[nH]c2ccccc12)C(=O)N[C@@H](Cc1c[nH]c2ccccc12)C(=O)N[C@H](C(=O)N[C@@H](Cc1c[nH]c2ccccc12)C(=O)N[C@@H](CC(C)C)C(=O)O)C(C)C
EC50 (R190/K192 FPR [1]): 1600 ± 440 nM | stimulation of GTPγS binding (R190/K192 FPR [1]): neither ETYIKWPWWVWL nor MYVKWPWYVWL had any effect | inhibition of arrestin translocation in response to formyl-Nle–Leu–Phe (W190/N192 FPR [2]): 77 ± 10% | β-arrestin translocation (W190/N192 FPR [2]): did not cause translocation | EC50 (W190/N192 FPR [3]): 300 ± 120 nM | stimulation of GTPγS binding (W190/N192 FPR [3]): neither ETYIKWPWWVWL nor MYVKWPWYVWL had any effect | inhibition of arrestin translocation in response to formyl-Nle–Leu–Phe (R190/K192 FPR [4]): 20 ± 9% | β-arrestin translocation (R190/K192 FPR [4]): did not cause translocation | inhibition of arrestin translocation in response to formyl-Nle–Leu–Phe (R190/N192 FPR [5]): 18 ± 4% | β-arrestin translocation (R190/N192 FPR [5]): did not cause translocation | Ki (R190/K192 FPR [6]): 370 ± 30 nM | Ki (R190/N192 FPR [7]): 533 ± 30 nM | Ki (W190/N192 FPR [8]; Ki (nM ± SEM) for binding of peptides to W190/N192 FPR): 270 ± 10 nM | inhibition of receptor downregulation in response to formyl-Nle–Leu–Phe (R190/K192 FPR [9]): 20 ± 2% | surface receptor downregulation (R190/K192 FPR [9]): did not cause surface receptor downregulation | inhibition of receptor downregulation in response to formyl-Nle–Leu–Phe (R190/N192 FPR [10]): 16 ± 2% | surface receptor downregulation (R190/N192 FPR [10]): did not cause surface receptor downregulation | inhibition of receptor downregulation in response to formyl-Nle–Leu–Phe (W190/N192 FPR [11]): 64 ± 6% | surface receptor downregulation (W190/N192 FPR [11]): did not cause surface receptor downregulation | EC50 (R190/N192 FPR [12]): 1600 ± 400 nM | stimulation of GTPγS binding (R190/N192 FPR [12]): neither ETYIKWPWWVWL nor MYVKWPWYVWL had any effect

CCCC[C@H](NC=O)C(=O)N[C@@H](CC(C)C)C(=O)N[C@@H](Cc1ccccc1)C(=O)O [Formyl-NleLeuPhe, Formyl-Nle–Leu–Phe, reference compound] (For-[Nle]-Leu-Phe-OH)
stimulation of GTPγS binding (R190/K192 FPR [1]): stimulated GTPγS binding | β-arrestin translocation (W190/N192 FPR [2]): caused β-arrestin translocation | stimulation of GTPγS binding (W190/N192 FPR [3]): stimulated GTPγS binding | β-arrestin translocation (R190/K192 FPR [4]): caused β-arrestin translocation | β-arrestin translocation (R190/N192 FPR [5]): caused β-arrestin translocation | fold higher affinity for R190/K192 than for W190/N192 (R190/K192 FPR [6]): ~3 fold | fold reduction of affinity on substitution of R190 with W190 (W190/N192 FPR [8]): 2.5 fold | surface receptor downregulation (R190/K192 FPR [9]): 85 ± 0.4% | surface receptor downregulation (R190/N192 FPR [10]): 76 ± 1.2% | surface receptor downregulation (W190/N192 FPR [11]): 76 ± 3% | stimulation of GTPγS binding (R190/N192 FPR [12]): stimulated GTPγS binding

QLQKWEDWVRWI
inhibition of FIV infection (potency) (FIV): low nanomolar

WRWWWW
effect on FPR (FPR): did not affect FPR

B1: Formyl peptide receptor (FPR R190/N192), P21462 (protein)
chain: METNSSLPTNISGGTPAVSAGYLFLDIITYLVFAVTFVLGVLGNGLVIWVAGFRMTHTVTTISYLNLAVADFCFTSTLPFFMVRKAMGGHWPFGWFLCKFVFTIVDINLFGSVFLIALIALDRCVCVLHPVWTQNHRTVSLAKKVIIGPWVMALLLTLPVIIRVTTVPGKTGTVACTFNFSPWTNDPKERINVAVAMLTVRGIIRFIIGFSAPMSIVAVSYGLIATKIHKQGLIKSSRPLRVLSFVAAAFFLCWSPYQVVALIATVRIRELLQGMYKEIGIAVDVTSALAFFNSCLNPMLYVFMGQDFRERLIHALPASLERALTEDSTQTSDTATNSTLPSAEVELQAK
Ki (MMWLL): 330 nM | Ki [13]: > 260000 nM | Ki [14]: 850 nM | Ki [15]: 2050 nM | Ki [16]: 1200 nM | Kd [17]: 121 nM | Ki [18]: 10000 nM | Ki [19]: 15700 nM | Ki [20]: 533 nM | Ki [21]: 783 nM | Ki (reverse 229E peptide): > 50000 nM | Ki [22]: 1000 nM | Ki [23]: 600 nM
